Source: patent US20260053811A1, “METHODS OF TREATING HYPERTENSION IN OBESE SUBJECTS” (Mineralys Therapeutics, Inc., priority 2022, published 2026)

Test system: hypertensive subjects
Assay: Seated automated office blood pressure (AOBP) in randomized, placebo-controlled, dose-ranging study
Assay type: in vivo, human
Details: 100 mg QD; for Mean Automated Office-Measured Systolic Blood Pressure at Wk 8 / Mean Change from Baseline at Week 8 in Automated Office-Measured Systolic Blood Pressure / Automated Office-Measured Diastolic Blood Pressure, Week 8, mean / Change from Baseline at Week 8 in Automated Office-Measured Diastolic Blood Pressure, mean: Part 2
Description: A randomized, double-blinded, placebo-controlled, dose-ranging, multicenter study was conducted to evaluate the effect of orally administered Compound A HBr on blood pressure for the treatment of hypertension in male and female subjects ≥18 years of age.
The study consists of two parts. For enrollment into Part 1 of the study, a subject's value of plasma renin activity (PRA) must be ≤1 ng/mL/h based on morning measurement. If the value of PRA >1 ng/mL/h based on morning measurement, then subjects may be eligible to enter Part 2 of the study.
For Part 1, 163 enrolled subjects ≥18 years of age were randomized into 6 equal treatment groups (1:1:1:1:1:1) to 12.5 mg BID, 25 mg BID, 12.5 mg QD, 50 mg QD, 100 mg QD, or placebo. After a review of interim clinical data, the 2 lowest dose levels (12.5 mg QD and 12.5 mg BID) were stopped for future randomization due to a lack of consistent meaningful reduction of blood pressure, but the patients randomized to that point remained in the study through completion. Thus, after the review of interim clinical data, subjects were randomized into 4 equal treatment groups (1:1:1:1) to 25 mg BID, 50 mg QD, 100 mg QD, or placebo.
For Part 2, 36 enrolled subjects ≥18 years of age were randomized (5:1) to either 100 mg QD Compound A HBr or placebo such that the Compound A HBr treatment group consisted of approximately 30 subjects and the placebo treatment group will consist of approximately 6 subjects.
Subjects orally administered the assigned study drug (Compound A HBr or placebo) according to the assigned dosing regimen for 8 weeks beginning on Study Day 1. All subjects in Part 1 (regardless of dosing group) received BID dosing to preserve the integrity of the blind; active drug is administered as the morning dose for all QD dose groups. Subjects returned to the research facility or were seen by the clinical investigator or approved home health care professional at the end of Study Weeks 1, 2, 3, 4, 5, 6, 7, and 8 (±2 days) for protocol-defined efficacy and safety assessments and procedures, assessment of adverse events (AEs), and confirmation of compliance with study drug usage. Subjects also completed a telephone visit and blood pressure (BP) check at home approximately 3 days post last dose of study drug. Subjects attended up to 14 full clinic visits, including a pre-Screening visit, a Screening/start of Placebo Run-in visit, a second visit during Placebo Run-in, a clinic visit to initiate the ABPM procedure, a Randomization visit, 8 weekly visits during double-blind treatment, and an end-of-study visit scheduled 4 weeks after the last study treatment for final efficacy and safety assessments.
An automated oscillometric sphygmomanometer device was used to measure the subjects' systolic and diastolic blood pressure in office after approximately 5 minutes of rest in the seated position.
The primary endpoint is the change in office-measured (mean of last 2 of 5 unattended measurements using an automated oscillometric sphygmomanometer device after approximately 5 minutes of rest in the seated position) systolic blood pressure (SBP) from baseline to the end of Study Week 8.
Secondary endpoints of this study were: • (a) Change in 24-hour ambulatory blood pressure monitoring (ABPM) parameters (systolic and diastolic) from baseline to the end of Study Week 7. • (b) Change in office-measured SBP from baseline to the end of Study Weeks 1, 2, 3, 4, 5, 6, and 7. • (c) Change in office-measured diastolic blood pressure (DBP) from baseline to the end of Study Weeks 1, 2, 3, 4, 5, 6, 7, and 8. • (d) Proportion of subjects who achieve office-measured BP of ≤130/80 mm Hg by the end of Study Week 8.

[1] = Part 1, Thiazide Diuretic Use at Baseline No
[2] = Part 1, Thiazide Diuretic Use at Baseline Yes
[3] = Systolic Blood Pressure Tertile at Baseline High
[4] = Systolic Blood Pressure Tertile at Baseline Low
[5] = Systolic Blood Pressure Tertile at Baseline Middle
[6] = Thiazide Diuretic Use at Baseline No
[7] = Thiazide Diuretic Use at Baseline Yes

## CC(=O)N[C@H]1CC[C@H](NC(=O)CN2CCN(c3nncc(-c4ccc(C)cc4)n3)CC2)CC1 [Compound A HBr]
[1]
  Mean (SD) Change from Baseline at Week 8 in Automated Office-Measured Diastolic Blood Pressure: −4.00 (6.33) mmHg
  Mean (SD) Change from Baseline at Week 8 in Automated Office-Measured Systolic Blood Pressure: −9.15 (9.27) mmHg
[2]
  Automated Office-Measured Diastolic Blood Pressure, Week 8, Mean (SD): 73.40 (8.98) mmHg
  Mean (SD) Automated Office-Measured Systolic Blood Pressure at Wk 8: 128.27 (16.26) mmHg
  Mean (SD) Change from Baseline at Week 8 in Automated Office-Measured Diastolic Blood Pressure: −6.43 (8.79) mmHg
  Mean (SD) Change from Baseline at Week 8 in Automated Office-Measured Systolic Blood Pressure: −17.37 (14.74) mmHg
ACEi/ARB No
  Mean Automated Office-Measured Systolic Blood Pressure at Wk 8: 131.00 mmHg
  Mean Change from Baseline at Week 8 in Automated Office-Measured Systolic Blood Pressure: −4.00 mmHg
ACEi/ARB Yes
  Mean Automated Office-Measured Systolic Blood Pressure at Wk 8: 129.24 mmHg
  Mean Change from Baseline at Week 8 in Automated Office-Measured Systolic Blood Pressure: −11.45 mmHg
AHTs 2
  Mean Automated Office-Measured Systolic Blood Pressure at Wk 8: 127.84 mmHg
  Mean Change from Baseline at Week 8 in Automated Office-Measured Systolic Blood Pressure: −10.37 mmHg
AHTs ≥3
  Mean Automated Office-Measured Systolic Blood Pressure at Wk 8: 131.82 mmHg
  Mean Change from Baseline at Week 8 in Automated Office-Measured Systolic Blood Pressure: −12.64 mmHg
Age 65-79 yr
  Mean Automated Office-Measured Systolic Blood Pressure at Wk 8: 132.81 mmHg
  Mean Change from Baseline at Week 8 in Automated Office-Measured Systolic Blood Pressure: −9.69 mmHg
Age <65 yr
  Mean Automated Office-Measured Systolic Blood Pressure at Wk 8: 120.88 mmHg
  Mean Change from Baseline at Week 8 in Automated Office-Measured Systolic Blood Pressure: −13.06 mmHg
Age ≥80 yr
  Mean Automated Office-Measured Systolic Blood Pressure at Wk 8: 123.00 mmHg
  Mean Change from Baseline at Week 8 in Automated Office-Measured Systolic Blood Pressure: −28.00 mmHg
BMI at baseline 25-30 kg/m^2
  Mean Automated Office-Measured Systolic Blood Pressure at Wk 8: 126.80 mmHg
  Mean Change from Baseline at Week 8 in Automated Office-Measured Systolic Blood Pressure: −14.60 mmHg
BMI at baseline <25 kg/m^2
  Mean Automated Office-Measured Systolic Blood Pressure at Wk 8: 130.00 mmHg
  Mean Change from Baseline at Week 8 in Automated Office-Measured Systolic Blood Pressure: −6.50 mmHg
BMI at baseline >30 kg/m^2
  Mean Automated Office-Measured Systolic Blood Pressure at Wk 8: 132.08 mmHg
  Mean Change from Baseline at Week 8 in Automated Office-Measured Systolic Blood Pressure: −8.00 mmHg
Race Black or AA
  Mean Automated Office-Measured Systolic Blood Pressure at Wk 8: 125.83 mmHg
  Mean Change from Baseline at Week 8 in Automated Office-Measured Systolic Blood Pressure: −15.83 mmHg
Race Other
  Mean Automated Office-Measured Systolic Blood Pressure at Wk 8: 130.17 mmHg
  Mean Change from Baseline at Week 8 in Automated Office-Measured Systolic Blood Pressure: −10.04 mmHg
Sex Female
  Mean Automated Office-Measured Systolic Blood Pressure at Wk 8: 127.90 mmHg
  Mean Change from Baseline at Week 8 in Automated Office-Measured Systolic Blood Pressure: −11.15 mmHg
Sex Male
  Mean Automated Office-Measured Systolic Blood Pressure at Wk 8: 132.10 mmHg
  Mean Change from Baseline at Week 8 in Automated Office-Measured Systolic Blood Pressure: −11.30 mmHg
[3]
  Mean Automated Office-Measured Systolic Blood Pressure at Wk 8: 132.36 mmHg
  Mean Change from Baseline at Week 8 in Automated Office-Measured Systolic Blood Pressure: −17.05 mmHg
[4]
  Mean Automated Office-Measured Systolic Blood Pressure at Wk 8: 124.11 mmHg
  Mean Change from Baseline at Week 8 in Automated Office-Measured Systolic Blood Pressure: −7.56 mmHg
[5]
  Mean Automated Office-Measured Systolic Blood Pressure at Wk 8: 130.60 mmHg
  Mean Change from Baseline at Week 8 in Automated Office-Measured Systolic Blood Pressure: −8.05 mmHg
[6]
  Automated Office-Measured Diastolic Blood Pressure, Week 8, mean: 68.42 mmHg
  Change from Baseline at Week 8 in Automated Office-Measured Diastolic Blood Pressure, mean: −8.13 mmHg
  Mean Automated Office-Measured Systolic Blood Pressure at Wk 8: 125.67 mmHg
  Mean Change from Baseline at Week 8 in Automated Office-Measured Systolic Blood Pressure: −12.25 mmHg
[7]
  Automated Office-Measured Diastolic Blood Pressure, Week 8, mean: 74.67 mmHg
  Change from Baseline at Week 8 in Automated Office-Measured Diastolic Blood Pressure, mean: −4.06 mmHg
